According to patent US20240059671A1, “TYROSINE KINASE 2 (TYK2) DEGRADATION COMPOUNDS AND METHODS OF USE” (CULLGEN (SHANGHAI), INC., priority 2020, published 2024):

Target: TYK2 (Homo sapiens, UniProt P29597)
Assay: TYK2 protein degradation in NOMO-1 cells by immunoblotting
Format: cell-based
Set-up: endogenous in cells
Conditions: NOMO-1 cells
How it was run: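 Read-out was densitometry of chemiluminescent TYK2 immunoblot bands from RIPA lysates after SDS-PAGE. Before lysis, NOMO-1 cells cultured in RPMI 1640 plus 10% FBS were treated for 16 h at 0.1, 1, 10, 100 and 1000 nM.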

TYK2, sequence (P29597 whole entry): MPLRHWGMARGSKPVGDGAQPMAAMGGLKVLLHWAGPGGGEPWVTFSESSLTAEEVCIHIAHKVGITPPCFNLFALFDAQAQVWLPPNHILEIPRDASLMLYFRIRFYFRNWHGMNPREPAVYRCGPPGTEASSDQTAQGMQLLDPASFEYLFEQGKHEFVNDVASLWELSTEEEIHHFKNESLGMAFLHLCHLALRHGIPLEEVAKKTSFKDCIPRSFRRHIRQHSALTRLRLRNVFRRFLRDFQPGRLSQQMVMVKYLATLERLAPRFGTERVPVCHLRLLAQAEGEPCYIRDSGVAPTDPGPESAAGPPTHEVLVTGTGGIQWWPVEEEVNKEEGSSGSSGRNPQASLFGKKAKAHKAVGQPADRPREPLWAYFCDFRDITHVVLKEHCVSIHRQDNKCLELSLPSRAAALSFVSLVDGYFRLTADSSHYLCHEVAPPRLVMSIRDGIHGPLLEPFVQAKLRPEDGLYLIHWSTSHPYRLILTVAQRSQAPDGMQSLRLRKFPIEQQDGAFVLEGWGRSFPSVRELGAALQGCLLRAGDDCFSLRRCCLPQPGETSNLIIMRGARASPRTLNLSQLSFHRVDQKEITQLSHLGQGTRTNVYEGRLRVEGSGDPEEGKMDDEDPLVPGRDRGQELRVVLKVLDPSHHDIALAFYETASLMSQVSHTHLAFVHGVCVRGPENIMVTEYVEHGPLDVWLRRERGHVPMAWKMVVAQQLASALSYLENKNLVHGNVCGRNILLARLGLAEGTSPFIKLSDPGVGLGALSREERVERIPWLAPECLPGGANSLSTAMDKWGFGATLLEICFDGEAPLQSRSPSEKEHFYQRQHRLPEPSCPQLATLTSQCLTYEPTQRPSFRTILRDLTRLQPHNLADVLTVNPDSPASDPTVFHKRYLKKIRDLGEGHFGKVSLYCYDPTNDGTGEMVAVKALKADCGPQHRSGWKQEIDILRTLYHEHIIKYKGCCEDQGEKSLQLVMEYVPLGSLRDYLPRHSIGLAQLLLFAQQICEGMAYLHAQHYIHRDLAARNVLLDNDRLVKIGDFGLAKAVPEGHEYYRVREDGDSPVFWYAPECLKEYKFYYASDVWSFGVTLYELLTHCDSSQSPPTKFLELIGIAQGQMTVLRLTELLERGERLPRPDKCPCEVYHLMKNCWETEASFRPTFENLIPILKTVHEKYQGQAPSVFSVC

| Compound | TYK2 Degradation (NOMO-1, 100 nM) | TYK2 Degradation (NOMO-1, 10 nM) |
| --- | --- | --- |
| CNC(=O)c1nnc(Nc2ccc(N3CCN(C4CCN(C(=O)CCC(=O)N[C@H](C(=O)N5C[C@H](O)C[C@H]5C(=O)N[C@@H](C)c5ccc(-c6scnc6C)cc5)C(C)(C)C)CC4)CC3)cn2)cc1Nc1cccc(-c2ncn(C)n2)c1OC [CPD-145, 6-((5-(4-(1-(4-(((S)-1-((2S,4R)-4-Hydroxy-2-(((S)-1-(4-(4-methylthiazol-5-yl)phenyl)ethyl)carbamoyl)pyrrolidin-1-yl)-3,3-dimethyl-1-oxobutan-2-yl)amino)-4-oxobutanoyl)piperidin-4-yl)piperazin-1-yl)pyridin-2-yl)amino)-4-((2-methoxy-3-(1-methyl-1H-1,2,4-triazol-3-yl)phenyl)amino)-N-methylpyridazine-3-carboxamide] | B (B: <60% TYK2 degradation, and >20% TYK2 degradation) |  |
| CNC(=O)c1nnc(Nc2ccc(C#CC3CN(C(=O)CCCC(=O)N[C@H](C(=O)N4C[C@H](O)C[C@H]4C(=O)N[C@@H](C)c4ccc(-c5scnc5C)cc4)C(C)(C)C)C3)cn2)cc1Nc1cccc(-c2ncn(C)n2)c1OC [CPD-135, 6-((5-((1-(5-(((S)-1-((2S,4R)-4-Hydroxy-2-(((S)-1-(4-(4-methylthiazol-5-yl)phenyl)ethyl)carbamoyl)pyrrolidin-1-yl)-3,3-dimethyl-1-oxobutan-2-yl)amino)-5-oxopentanoyl)azetidin-3-yl)ethynyl)pyridin-2-yl)amino)-4-((2-methoxy-3-(1-methyl-1H-1,2,4-triazol-3-yl)phenyl)amino)-N-methylpyridazine-3-carboxamide] | A (A: ≥60% TYK2 degradation) | B (B: <60% TYK2 degradation, and >20% TYK2 degradation) |
| CNC(=O)c1nnc(Nc2ccc(C(=O)NCCNc3ccc4c(c3)C(=O)N(C3CCC(=O)NC3=O)C4=O)cn2)cc1Nc1cccc(-c2ncn(C)n2)c1OC (stereo not shown) [CDD-176, 6-((5-((2-((2-(2,6-dioxopiperidin-3-yl)-1,3-dioxoisoindolin-5-yl)amino)ethyl)carbamoyl)pyridin-2-yl)amino)-4-((2-methoxy-3-(1-methyl-1H-1,2,4-triazol-3-yl)phenyl)amino)-N-methylpyridazine-3-carboxamide] | C (C: ≤20% TYK2 degradation) | C (C: ≤20% TYK2 degradation) |
| CNC(=O)c1nnc(Nc2ccc(C(=O)NCCCCNc3cccc4c3C(=O)N(C3CCC(=O)NC3=O)C4=O)cn2)cc1Nc1cccc(-c2ncn(C)n2)c1OC (stereo not shown) [CPD-154, 6-((5-((4-((2-(2,6-Dioxopiperidin-3-yl)-1,3-dioxoisoindolin-4-yl)amino)butyl)carbamoyl)pyridin-2-yl)amino)-4-((2-methoxy-3-(1-methyl-1H-1,2,4-triazol-3-yl)phenyl)amino)-N-methylpyridazine-3-carboxamide] | B (B: <60% TYK2 degradation, and >20% TYK2 degradation) |  |
| CNC(=O)c1nnc(Nc2ccc(C#CC3CN(C(=O)CCCCCCCCC(=O)N[C@H](C(=O)N4C[C@H](O)C[C@H]4C(=O)N[C@@H](C)c4ccc(-c5scnc5C)cc4)C(C)(C)C)C3)cn2)cc1Nc1cccc(-c2ncn(C)n2)c1OC [CPD-127, 6-((5-((1-(10-(((S)-1-((2S,4R)-4-hydroxy-2-(((S)-1-(4-(4-methylthiazol-5-yl)phenyl)ethyl)carbamoyl)pyrrolidin-1-yl)-3,3-dimethyl-1-oxobutan-2-yl)amino)-10-oxodecanoyl)azetidin-3-yl)ethynyl)pyridin-2-yl)amino)-4-((2-methoxy-3-(1-methyl-1H-1,2,4-triazol-3-yl)phenyl)amino)-N-methylpyridazine-3-carboxamide] | A (A: ≥60% TYK2 degradation) | A (A: ≥60% TYK2 degradation) |
| CNC(=O)c1nnc(Nc2ccc(C#CC3CN(C(=O)CCCCCCCC(=O)N[C@H](C(=O)N4C[C@H](O)C[C@H]4C(=O)N[C@@H](C)c4ccc(-c5scnc5C)cc4)C(C)(C)C)C3)cn2)cc1Nc1cccc(-c2ncn(C)n2)c1OC [CPD-126, 6-((5-((1-(9-(((S)-1-((2S,4R)-4-hydroxy-2-(((S)-1-(4-(4-methylthiazol-5-yl)phenyl)ethyl)carbamoyl)pyrrolidin-1-yl)-3,3-dimethyl-1-oxobutan-2-yl)amino)-9-oxononanoyl)azetidin-3-yl)ethynyl)pyridin-2-yl)amino)-4-((2-methoxy-3-(1-methyl-H-1,2,4-triazol-3-yl)phenyl)amino)-N-methylpyridazine-3-carboxamide] | A (A: ≥60% TYK2 degradation) | A (A: ≥60% TYK2 degradation) |
| CNC(=O)c1nnc(Nc2ccc(CNC(=O)CCCCCCC(=O)N[C@H](C(=O)N3C[C@H](O)C[C@H]3C(=O)N[C@@H](C)c3ccc(-c4scnc4C)cc3)C(C)(C)C)cn2)cc1Nc1cccc(-c2ncn(C)n2)c1OC [CPD-131, N1-((S)-1-((2S,4R)-4-hydroxy-2-(((S)-1-(4-(4-methylthiazol-5-yl)phenyl)ethyl)carbamoyl)pyrrolidin-1-yl)-3,3-dimethyl-1-oxobutan-2-yl)-N8-((6-((5-((2-methoxy-3-(1-methyl-1H-1,2,4-triazol-3-yl)phenyl)amino)-6-(methylcarbamoyl)pyridazin-3-yl)amino)pyridin-3-yl)methyl)octanediamide] | A (A: ≥60% TYK2 degradation) | A (A: ≥60% TYK2 degradation) |
| CNC(=O)c1nnc(Nc2ccc(N3CCN(C4CCN(C(=O)CCCCCCCCC(=O)N[C@H](C(=O)N5C[C@H](O)C[C@H]5C(=O)N[C@@H](C)c5ccc(-c6scnc6C)cc5)C(C)(C)C)CC4)CC3)cn2)cc1Nc1cccc(-c2ncn(C)n2)c1OC [CPD-151, 6-((5-(4-(1-(10-(((S)-1-((2S,4R)-4-hydroxy-2-(((S)-1-(4-(4-methylthiazol-5-yl)phenyl)ethyl)carbamoyl)pyrrolidin-1-yl)-3,3-dimethyl-1-oxobutan-2-yl)amino)-10-oxodecanoyl)piperidin-4-yl)piperazin-1-yl)pyridin-2-yl)amino)-4-((2-methoxy-3-(1-methyl-1H-1,2,4-triazol-3-yl)phenyl)amino)-N-methylpyridazine-3-carboxamide] | A (A: ≥60% TYK2 degradation) | A (A: ≥60% TYK2 degradation) |
| CNC(=O)c1nnc(Nc2ccc(CNC(=O)CCCCC(=O)N[C@H](C(=O)N3C[C@H](O)C[C@H]3C(=O)N[C@@H](C)c3ccc(-c4scnc4C)cc3)C(C)(C)C)cn2)cc1Nc1cccc(-c2ncn(C)n2)c1OC [CPD-129, N1-((S)-1-((2S,4R)-4-Hydroxy-2-(((S)-1-(4-(4-methylthiazol-5-yl)phenyl)ethyl)carbamoyl)pyrrolidin-1-yl)-3,3-dimethyl-1-oxobutan-2-yl)-N6-((6-((5-((2-methoxy-3-(1-methyl-1H-1,2,4-triazol-3-yl)phenyl)amino)-6-(methylcarbamoyl)pyridazin-3-yl)amino)pyridin-3-yl)methyl)adipamide] | A (A: ≥60% TYK2 degradation) | C (C: ≤20% TYK2 degradation) |
| CNC(=O)c1nnc(Nc2ccc(C(=O)NCCCCNc3ccc4c(c3)C(=O)N(C3CCC(=O)NC3=O)C4=O)cn2)cc1Nc1cccc(-c2ncn(C)n2)c1OC (stereo not shown) [CPD-163, 6-((5-((4-((2-(2,6-dioxopiperidin-3-yl)-1,3-dioxoisoindolin-5-yl)amino)butyl)carbamoyl)pyridin-2-yl)amino)-4-((2-methoxy-3-(1-methyl-1H-1,2,4-triazol-3-yl)phenyl)amino)-N-methylpyridazine-3-carboxamide] | C (C: ≤20% TYK2 degradation) |  |
| CNC(=O)c1nnc(Nc2ccc(CNC(=O)CCCC(=O)N[C@H](C(=O)N3C[C@H](O)C[C@H]3C(=O)N[C@@H](C)c3ccc(-c4scnc4C)cc3)C(C)(C)C)cn2)cc1Nc1cccc(-c2ncn(C)n2)c1OC [CPD-136, N1-((S)-1-((2S,4R)-4-Hydroxy-2-(((S)-1-(4-(4-methylthiazol-5-yl)phenyl)ethyl)carbamoyl)pyrrolidin-1-yl)-3,3-dimethyl-1-oxobutan-2-yl)-N5-((6-((5-((2-methoxy-3-(1-methyl-1H-1,2,4-triazol-3-yl)phenyl)amino)-6-(methylcarbamoyl)pyridazin-3-yl)amino)pyridin-3-yl)methyl)glutaramide] | A (A: ≥60% TYK2 degradation) | B (B: <60% TYK2 degradation, and >20% TYK2 degradation) |
| CNC(=O)c1nnc(Nc2ccc(C#CC3CCN(CCCCC(=O)N[C@H](C(=O)N4C[C@H](O)C[C@H]4C(=O)N[C@@H](C)c4ccc(-c5scnc5C)cc4)C(C)(C)C)CC3)cn2)cc1Nc1cccc(-c2ncn(C)n2)c1OC [CPD-160, 6-((5-((1-(5-(((S)-1-((2S,4R)-4-hydroxy-2-(((S)-1-(4-(4-methylthiazol-5-yl)phenyl)ethyl)carbamoyl)pyrrolidin-1-yl)-3,3-dimethyl-1-oxobutan-2-yl)amino)-5-oxopentyl)piperidin-4-yl)ethynyl)pyridin-2-yl)amino)-4-((2-methoxy-3-(1-methyl-1H-1,2,4-triazol-3-yl)phenyl)amino)-N-methylpyridazine-3-carboxamide] | C (C: ≤20% TYK2 degradation) |  |
| CNC(=O)c1nnc(Nc2ccc(C(=O)NCCCCCCCCNc3ccc4c(c3)C(=O)N(C3CCC(=O)NC3=O)C4=O)cn2)cc1Nc1cccc(-c2ncn(C)n2)c1OC (stereo not shown) [CPD-167, 6-((5-((8-((2-(2,6-dioxopiperidin-3-yl)-1,3-dioxoisoindolin-5-yl)amino)octyl)carbamoyl)pyridin-2-yl)amino)-4-((2-methoxy-3-(1-methyl-1H-1,2,4-triazol-3-yl)phenyl)amino)-N-methylpyridazine-3-carboxamide] | C (C: ≤20% TYK2 degradation) | A (A: ≥60% TYK2 degradation) |
